The target in the assay is His-tagged KRAS G12D protein (Homo sapiens, UniProt P01116, G12D). Description: KRAS G12D TR-FRET Assay. The format is binding. The method, then:
The His-tagged KRAS G12D protein (Amgen) was diluted to 20 nM in Assay Buffer (20 mM HEPES, pH 7.4, 10 mM MgCl2, 50 mM NaCl, 0.1% BSA, 0.01% Tween-20, 10 μM GDP) and 2 μL was added to the appropriate wells of the 384-well plate. The plate was incubated for 30 minutes at room temperature. Biotinylated KRPep-2d substrate (Amgen) was diluted to 20 nM in Assay Buffer and 2 μL was added to all wells and incubated for 1 hour at room temperature. Detection Reagent (0.4 nM LANCE Eu-W1024 Anti-6×His (Perkin Elmer AD0401), 5 nM streptavidin-d2 (Cisbio 610SADLA)) was prepared in Assay Buffer, then 4 μL was added to the plate and incubated for 1 hour at room temperature.

Setting [1] is: TR-FRET, read-out: KRAS G12D Binding IC50.

The IC50 is the concentration at which inhibition is half-maximal.

Where a name gives a salt, the structure may show the parent alone. Read-outs that look alike come from different tables or passages of the source.

His-tagged KRAS G12D protein, sequence (P01116 1-188 isoform P01116-2 G12D): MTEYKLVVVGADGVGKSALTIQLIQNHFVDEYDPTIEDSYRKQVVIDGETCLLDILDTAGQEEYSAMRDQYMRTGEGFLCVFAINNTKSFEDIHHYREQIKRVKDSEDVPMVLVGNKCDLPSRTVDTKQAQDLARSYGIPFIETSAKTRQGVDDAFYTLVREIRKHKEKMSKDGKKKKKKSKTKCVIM

In the case of `CN(C)CC1(COc2nc3c4cnc(c(F)c4n2)-c2c(c(Cl)cc4[nH]ncc24)CCCOC(=O)O[C@]2(C)COCCN3C2)CC1` (single isomer, unassigned) [Example 331], for the setting “TR-FRET binding”, the IC50 worked out at 5 nM.

With `[2H]C([2H])([2H])[C@@]12COCCN(C1)c1nc(OC[C@@]34CCCN3C[C@H](F)C4)nc3c(F)c(ncc13)-c1c(c(C)cc3[nH]ncc13)CCCOC(=O)O2` (single isomer, unassigned) [Example 352], where the note is “TR-FRET binding”, the IC50 is 6 nM.

`C[C@@]12COCCN(C1)c1nc(OC[C@H]3CC[C@@H]4COCCN43)nc3c(F)c(ncc13)-c1c(c(Cl)cc3[nH]ncc13)CCCOC(=O)O2` (single isomer, unassigned) [Example 308] gave an IC50 (TR-FRET binding) of 6 nM.

In turn, `Cc1cc2[nH]ncc2c2c1/C=C\COC(=O)O[C@@H]1CCCN(C1)c1nc(OC[C@@]34CCCN3C[C@H](F)C4)nc3c(F)c-2ncc13` (single isomer, unassigned) [Example 123] returned an IC50 (TR-FRET binding) of 8 nM.

For the molecule `Cc1cc2[nH]ncc2c2c1C[C@H](C)COC(=O)O[C@@H]1CCCN(C1)c1nc(OC[C@@]34CCCN3C[C@H](F)C4)nc3c(F)c-2ncc13` (single isomer, unassigned) [Example 215], the IC50 (TR-FRET binding) came out at 15 nM.

`CN1CCC[C@H]1COc1nc2c3cnc(c(F)c3n1)-c1c(c(Cl)cc3[nH]ncc13)CCCOC(=O)O[C@]1(C)COCCN2C1` (single isomer, unassigned) [Example 181] gave an IC50 (TR-FRET binding) of 6 nM.

Where the note is “TR-FRET binding”, `Fc1c2ncc3c(nc(OC[C@@]45CCCN4C[C@H](F)C5)nc13)N1CCO[C@]3(C1)C[C@@H](C3)OCCCCc1c(Cl)cc3[nH]ncc3c1-2` (single isomer, unassigned) [Example 261] returned an IC50 of 6 nM.

For the setting “TR-FRET binding”, `Cc1cc2[nH]ncc2c2c1CCCCO[C@H](C)[C@H]1CN(CCO1)c1nc(OC[C@@]34CCCN3C[C@H](F)C4)nc3c(F)c-2ncc13` (single isomer, unassigned) [Example 241] yielded an IC50 of 1290 nM.

Molecule `C[C@]12CCCN(C1)c1nc(OC[C@@]34CCCN3C[C@H](F)C4)nc3c(F)c(ncc13)-c1cccc3ccc(F)c(c13)CCOC(=O)N2` (single isomer, unassigned) [Example 78] returned an IC50 (TR-FRET binding) of 3810 nM.

For the setting “TR-FRET binding”, `Fc1c2ncc3c(nc(OC[C@@]45CCCN4C[C@H](F)C5)nc13)N1CCCC[C@H](C1)c1cnn(n1)CCCc1c(Cl)cc3[nH]ncc3c1-2` (single isomer, unassigned) [Example 296] displayed an IC50 of 4 nM.

Consider `O[C@H]1C[C@H]2COCCCCc3c(Cl)cc4[nH]ncc4c3-c3ncc4c(nc(OC[C@@]56CCCN5C[C@H](F)C6)nc4c3F)N(C1)C2` (single isomer, unassigned) [Example 407], for which the IC50 under setting [1] is 6 nM.

Take `Fc1cc2[nH]ncc2c2c1CCCCOC[C@H]1CCCCN(C1)c1nc(OC[C@@]34CCCN3C[C@H](F)C4)nc3c(F)c-2ncc13` (single isomer, unassigned) [Example 240]: the IC50 (TR-FRET binding) is 3 nM.

Regarding `O=C1CCCCc2c(Cl)cc3[nH]ncc3c2-c2ncc3c(nc(OC[C@@]45CCCN4C[C@H](F)C5)nc3c2F)N2CC[C@@H]3[C@H](C2)N1CC3(F)F` (single isomer, unassigned) [Example 403], the IC50 under setting [1] worked out at 3 nM.

Where the note is “TR-FRET binding”, `CN1CCC[C@H]1COc1nc2c3cnc(c(F)c3n1)-c1c(c(Cl)cc3[nH]ncc13)CCCOC(=O)O[C@@]1(CF)COCCN2C1` (single isomer, unassigned) [Example 337] yielded an IC50 of 2440 nM.

As to `C[C@@]12CCCN(C1)c1nc(OC[C@@]34CCCN3C[C@H](F)C4)nc3c(F)c(ncc13)-c1cccc3ccc(F)c(c13)CCOC(=O)N2` (single isomer, unassigned) [Example 77], under “TR-FRET binding”, the IC50 was determined as 14 nM.

`Fc1c2ncc3c(nc(OC[C@@]45CCCN4C[C@H](F)C5)nc13)N1CCOC[C@H](COCCCCc3c(Cl)cc4[nH]ncc4c3-2)C1` (single isomer, unassigned) [Example 136] displayed an IC50 (TR-FRET binding) of 7 nM.

Regarding `C[C@@]12CCCN(C1)c1nc(OC[C@@]34CCCN3C[C@H](F)C4)nc3c(F)c(ncc13)-c1cc(O)cc3c1[C@H](CCCC(=O)N2)CCC3` (single isomer, unassigned) [Example 28, 2,2,2-trifluoroacetate salt], the IC50 (TR-FRET binding) is 68 nM.

Where the note is “TR-FRET binding”, `O=C1N[C@@H]2CCCCN(C2)c2nc(OC[C@@]34CCCN3C[C@H](F)C4)nc3c(F)c(ncc23)-c2c3c(cc4[nH]ncc24)CC[C@H]3CCO1` (single isomer, unassigned) [Example 301] had an IC50 of 5 nM.

In turn, `O=C1OC[C@H]2C[C@@H]2c2c(Cl)cc3[nH]ncc3c2-c2ncc3c(nc(OC[C@@]45CCCN4C[C@H](F)C5)nc3c2F)N2CCC[C@H](C2)O1` (racemic) [Example 113] registered an IC50 (TR-FRET binding) of 10 nM.

For the setting “TR-FRET binding”, `Cc1cc2[nH]ncc2c2c1CCC[C@H](F)C(=O)N(C)[C@@H]1CCCN(C1)c1nc(OC[C@@]34CCCN3C[C@H](F)C4)nc3c(F)c-2ncc13` (single isomer, unassigned) [Example 51] had an IC50 of 10 nM.

Regarding `Cc1cc2[nH]ncc2c2c1C[C@@H](C)COC(=O)O[C@@H]1CCCN(C1)c1nc(OC[C@@]34CCCN3C[C@H](F)C4)nc3c(F)c-2ncc13` (single isomer, unassigned) [Example 214], the IC50 (TR-FRET binding) stood at 22 nM.

On to `Fc1c2ncc3c(nc(OC[C@@]45CCCN4C[C@H](F)C5)nc13)N1CCOC[C@@H](COCCCCc3c(Cl)cc4[nH]ncc4c3-2)C1` (single isomer, unassigned) [Example 137], for which, where the note is “TR-FRET binding”, the half-maximal inhibitory concentration (IC50) is 4 nM.

For the molecule `O=C1OCCCc2c(Cl)cc3[nH]ncc3c2-c2ncc3c(nc(OC[C@@]45CCCN4C[C@H](F)C5)nc3c2F)N2CCOC[C@@](CF)(C2)O1` (single isomer, unassigned) [Example 310], the IC50 (TR-FRET binding) worked out at 2260 nM.

In the case of `Cc1cc2[nH]ncc2c2c1CCCC(F)C(=O)N[C@@H]1CCCCN(C1)c1nc(OC[C@@]34CCCN3C[C@H](F)C4)nc3c(F)c-2ncc13` (single isomer, unassigned) [Example 159], where the note is “TR-FRET binding”, the IC50 came out at 6 nM.

Regarding `O=C1OC/C=C/c2c(Cl)cc3[nH]ncc3c2-c2ncc3c(nc(OC[C@@]45CCCN4C[C@H](F)C5)nc3c2F)N2CCC[C@H](C2)O1` (single isomer, unassigned) [Example 116], for the setting “TR-FRET binding”, the half-inhibitory concentration (IC50) is 17 nM.

For the molecule `CN1CCC[C@H]1COc1nc2c3cnc(c(F)c3n1)-c1c(c(Cl)cc3[nH]ncc13)CCCOC(=O)O[C@@]1(C)COCCN2C1` (single isomer, unassigned) [Example 180], the IC50 (TR-FRET binding) turned out to be 1510 nM.

Regarding `CN1C(=O)COCC[C@@H]2CCc3cc4[nH]ncc4c(c32)-c2ncc3c(nc(OC[C@@]45CCCN4C[C@H](F)C5)nc3c2F)N2CCC[C@@H]1C2` (single isomer, unassigned) [Example 279], for the setting “TR-FRET binding”, the IC50 turned out to be 333 nM.

For `Fc1c2ncc3c(nc(OC[C@@]45CCCN4C[C@H](F)C5)nc13)N1CCCC[C@](F)(COCCCCc3c(Cl)cc4[nH]ncc4c3-2)C1` (single isomer, unassigned) [Example 398], under setting [1], the IC50 amounted to 4 nM.

In turn, `CN1C(=O)OCCCc2c(Cl)cc3[nH]ncc3c2-c2ncc3c(nc(OC[C@@]45CCCN4C[C@H](F)C5)nc3c2F)N2C[C@@H](O)C[C@@H]1C2` (single isomer, unassigned) [Example 286] had an IC50 (TR-FRET binding) of 81 nM.

With `Fc1cc2[nH]ncc2c2c1CCCCOC[C@@H]1CCCCN(C1)c1nc(OC[C@@]34CCCN3C[C@H](F)C4)nc3c(F)c-2ncc13` (single isomer, unassigned) [Example 239], the IC50 (TR-FRET binding) amounted to 6 nM.

For the origin of these results see US20260174769A1, “MACROCYCLIC COMPOUNDS AND METHODS OF USE” (AMGEN INC., priority 2022, published 2026).
